From ChEMBL document CHEMBL5608211, “Antibody-drug conjugates for targeted cancer therapy: Recent advances in potential payloads” (Eur J Med Chem, 2024) come the findings set out here.

pIC50: −log10 of the molar value. ≈ marks a conversion by molar mass, not a printed value.

Holding throughout (assay type): functional, cell-based
A short description of experiment [1]: Cytotoxicity against human KPL-4 cells assessed as inhibition of cell growth incubated for 3 days by CellTiter-Glo luminescent assay. The following applies: KPL4, 72 h. Background: Cellular ATP, detected with luciferase, serves as a proxy for viable cell number.
Another experiment deals with EMT6. Put plainly: Cytotoxicity against mouse EMT6 cells assessed as inhibition of cell growth incubated for 3 days by SRB assay. To be noted: EMT6, 72 h. (In general: In SRB staining, fixed cells bind dye roughly in proportion to their protein.)
The subject of another experiment is T47D. Put plainly: Cytotoxicity against human T47D cells.

What is called IC50 is the concentration that inhibits the measured activity by half. Take `C=C1C[C@H]2C=Nc3cc(OCCCCCOc4cc5c(cc4OC)C(=O)N4CC(=C)C[C@H]4C(O)N5C(=O)OCc4ccc(SSC(C)(C)C)cc4)c(OC)cc3C(=O)N2C1` (stereo partly drawn): the IC50 in experiment [1] was determined as 6.3 ng/mL (≈ 7.35 nM).

The pIC50 is the negative decadic logarithm of the IC50, by convention in mol/L. For the molecule `COc1cc2c(cc1OCCCCCC(=O)N1C[C@H](CCl)c3c1cc(O)c1ccccc31)N=C[C@@H]1CCCN1C2=O`, the pIC50 with EMT6 was 11.11.

In turn, `CC[C@H](C)[C@@H]1NC(=O)CNC(=O)[C@H]2CC(=O)[C@H]([C@@H](C)[C@@H](O)CO)NC(=O)[C@@H]3C[C@@H](O)CN3C(=O)[C@H](CC(=O)O)NC(=O)[C@H](C[S+]([O-])c3[nH]c4cc(O)ccc4c3C2)NC(=O)CNC1=O` (stereo partly drawn) showed a pIC50 in the experiment on T47D of about 6.30.
